# Data reported in patent US8119640B2, “Hedgehog pathway antagonists methods of use” (The Board of Trustees of the Leland Stanford Junior …, priority 2008, dated 2012).
# What was measured:
# MAPK = conditions: NIH-3T3 cells, 10 μM U0126
# Experimental: NIH-3T3 cells were seeded into 6-well plates and grown to 80% confluency in DMEM containing 10% CS, 100 U/mL penicillin, and 0.1 mg/mL streptomycin. Cells were then serumstarved for 8 h in DMEM containing 0.5% CS and either DMSO, 15 μM HPI-1, 20 μM HPI-2, 30 μM HPI-3, or 30 μM HPI-4. 50 μM LY294002 and 10 μM U0126 were used as positive controls. After serum starvation, cells were stimulated with 10 ng/ml PDGF BB for 30 min, washed in PBS, and lysed in buffer containing 50 mM Tris HCl pH 7.4, 250 mM NaCl, 20 mM NaF, 2 mM sodium orthovanadate, 2 mM EDTA, 2 mM PMSF, 1% Triton X-100, and EDTA free protease inhibitor cocktail (Roche). Cell lysates were clarified by centrifugation at 20,000×g and total protein concentrations were determined by the BCA assay (Pierce). 15 μg of protein from each lysate was mixed with 6×SDS-PAGE sample buffer (300 mM Tris-HCl, pH 6.8 containing 60% glycerol, 12% SDS, 600 mM DTT, and 0.05% bromophenol blue), boiled for 17 5 min and then resolved on 4-12% Bis-Tris Criterion XT gels. The electrophoresed samples were transferred to PVDF membranes and blocked overnight in TBST buffer containing 5% BSA. […]
# Smo = Smo (Mus musculus, UniProt P56726); assay: FRET assay for Smo multimerization (Smo-CFP/Smo-YFP); format: cell-based, murine; parameters: expressed in transfected cells; host or cells: NIH-3T3; conditions: 10 μM cyclopamine, 500 nM SAG, 10 μM HPIs
# Experimental: FRET assay for Smo multimerization. […] The cells were washed with PBS buffer, fixed with 4% paraformaldehyde for 20 min, and mounted on slides in 80% glycerol. Fluorescence signals were acquired with the 100× objective of a Zeiss LSM510 confocal microscope with the following conditions: CFP was excited by 458-nm light and the emission was collected through a BP 480-520-nm filter. YFP was excited by 514-nm light and the emission was collected through a BP 535-590-nm filter. The CFP signal was obtained before and after photobleaching YFP(CFPBP and CFPAP, respectively) using the full power of the 514-nm laser line for 1-2 min at the top half of each cell, leaving the bottom half unbleached as an internal control. The CFP fluorescence intensity was analyzed using Metamorph software (Universal Imaging Corp.), and the energy transfer efficiency was calculated using the formula: FRET %=((CFPAP−CFPBP)/CFPAP)×100. Photobleached areas in 11-19 cells were analyzed for each experimental condition.
# Hh pathway [1] = assay: Shh-LIGHT2 assay for Hh pathway activation (Gli-dependent firefly luciferase); format: cell-based; conditions: 0.5 μM SAG versus Shh
# Experimental: Shh-LIGHT2 assay for Hh pathway activation and library screening conditions. h-N-conditioned medium was prepared as previously described. […] For 96-well plate assays, Shh-LIGHT2 cells were seeded into each plate (10,000 cells/well) and cultured to confluency. The Shh-LIGHT2 cells were then grown in DMEM containing 0.5% CS, 100 U/mL penicillin, 0.1 mg/mL streptomycin, either 5% Shh-N-conditioned medium or 500 nM SAG, and various concentrations of the HPIs. After the cells were cultured for another 30 h, the resulting firefly and Renilla luciferase activities were measured using a Dual Luciferase Reporter kit (Promega) and a Veritas microplate luminometer (Turner Biosystems).
# When the cells reached >90% confluency, they were removed by trypsinization and diluted to a final volume of 50 mL medium. This cell suspension was then plated into clear-bottom, white-walled 384-well plates using a Titertek Multidrop dispenser (50 μL/well) and the cells were cultured until they reached confluency (3-4 days). […] The plates were then placed into an automated Staccato system (Caliper Life Sciences), which includes an automated CO2 incubator. An automated protocol was then run, in 3 which a Multidrop dispenser added 10 μL of a SAG solution in 0.5% CS medium (final SAG concentration of 500 nM) to columns 1-22 and 100 nL of each compound solution was added to the plates using a V&P Scientific pin tool, resulting in a final compound screening concentration of 10 μM. The SAG-free wells were used as negative controls. After 28-32 h, the assay medium was manually removed and the plates were frozen. To assay the firefly luciferase activities, the plates were thawed and placed into a Twister II stacker in the Staccato system. Bright-Glo luciferase substrate (Promega) was added by the Multidrop dispenser and the plates were analyzed on an Analyst GT microplate reader (2 min in the dark, 0.2 sec integration/well; Molecular Devices). Hits were defined as compounds that reduce the firefly luciferase signal by at least 50% compared to inhibitor-free controls. Primary hits were then re-tested in duplicate in an eight-point, 1:1 serially diluted doseresponse curve with a starting concentration of 20 μM. In these experiments, the median inhibitory concentration (IC50) for both firefly and Renilla luciferase were determined using a Dual-Glo kit (Promega).
# Hh pathway [2] = assay: Shh-EGFP assay for Hh pathway activation; format: cell-based; conditions: 3 μM cyclopamine; 15 μM HPI-1, 20 μM HPI-2, 30 μM HPI-3, 30 μM HPI-4
# Experimental: Shh-EGFP assay for Hh pathway activation. A Gli-dependent enhanced green fluorescent protein reporter (Shh-EGFP) was generated by excising firefly luciferase cDNA from the 8XGliBs vector using NcoI/Hpal, and ligating in EGFP cDNA excised from the pEGFP-C1 vector (Clontech) by NcoI/Af/II digestion. […] The cells were grown to confluency and treated with DMEM containing 0.5% CS, 100 U/mL penicillin, 0.1 mg/mL streptomycin, and 5% Shh-N-conditioned medium for 30 h. Following Shh-N treatment, the adherent cultures were dissociated into single cells with 0.05% Trypsin-EDTA (300 μL/well; Invitrogen) for 5 min. The cells were then suspended in 1 mL of PBS containing 1% CS and sorted on a BD FACSAria (excitation: 488 nm; emission: 530/30 nm) to enrich for cells expressing EGFP in a Shh-N-responsive manner. […] To identify Shh-EGFP clones with maximum Shh-N-responsiveness, individual lines were seeded into 24-well plates (45,000 cell/well) and cultured for 48 h. The cells were then treated with DMEM containing 0.5% CS, 100 U/mL pencillin, 0.1 mg/mL streptomycin or the culture medium plus 5% Shh-N-conditioned medium. After 30 h, the adherent cultures were treated with 0.05% trypsin-EDTA (150 μL/well; Invitrogen) for 5 min to dissociate them into single cells. The cells were then resuspended in 500 μL of PBS containing 1% CS and analyzed on a BD FACSCalibur (excitation: 488 nm; emission: 530/30 nm). 10,000 cells were used to assess EGFP expression levels as a measure of Hh pathway activation, and the data was analyzed using FlowJo software (Tree Star). Clones with low basal EGFP levels and maximum Shh-Ninduced EGFP expression were selected for further use. To assess the inhibitory activities of the HPIs in the Shh-EGFP cells, a clonal line with maximum Shh-responsiveness was cultured in 24-well plates as described above. […] The resulting EGFP levels were then evaluated by FACS and quantified using the FlowJo software.
# C3H10T(1/2) cells = assay: C3H10T(1/2) assay for Hh pathway activation (alkaline phosphatase); format: cell-based
# Experimental: C3H10T(1/2) assay for Hh pathway activation. C3H10T(1/2) cells (ATCC) were plated into 96-well plates using DMEM containing 10% FBS, 100 U/mL penicillin, 0.1 mg/mL streptomycin, 5% Shh-N-conditioned medium, and various concentrations of the Hh pathway inhibitors. After approximately 40 h, the cells were washed with PBS and lysed in 50 μL of buffer containing 50 mM Tris-HCl, pH 9.5, 150 mM NaCl, 5 mM MgCl2, and 1% Triton X-100. Alkaline phosphatase activities in the cell lysates were quantified by adding 10 μL of the lysate to 50 μL of CDP-Star chemiluminescence reagent (Perkin Elmer) and measuring the resulting chemiluminescence on a Veritas microplate luminometer.
# FLAG-Gli2 = assay: Analysis of Gli2 processing and Shh-dependent Gli2 stabilization; format: cell-based, mouse; conditions: Shh-EGFP FLAG-Gli2 cells, absence and presence of Shh, 24 h
# Experimental: Analysis of Gli2 processing and Shh-dependent Gli2 stabilization. […] Each compound incubation was also done in the absence and presence of 5% Shh-N-conditioned medium, and the cells were maintained under these conditions for 24 h. The cells were subsequently solubilized in lysis buffer (100 μL/well; 50 mM Tris-HCl, pH 7.4, 1% Triton X-100, 250 mM NaCl, 2 mM EDTA, 20 mM NaF, 2 mM Na3VO4, 2 mM 2-mercaptoethanol, EDTA-free protease inhibitor cocktail (Roche)). This suspension was transferred to a 1.5-mL centrifuge tube and incubated on ice for 30 min, with vortexing every 5 min. The cell lysates were then centrifuged at 20,000×g at 4° C. for 20 min. Supernatants were removed, and a BCA protein assay was performed to quantify protein levels. Mouse anti-FLAG M2 agarose slurry (20 μL, Sigma) was pelleted by centrifugation and incubated with 800 ng of protein from each condition for 90 min at 4° C. and then washed three times with 1 mL of wash buffer (75 mM Tris-HCl buffer, pH 8.0 containing 225 mM NaCl, 0.5% Triton X-100) and centrifuged at 2,300×g at 4° C. The agarose beads were suspended in 30 μL of 1×SDS-PAGE sample buffer (50 mM Tris-HCl, pH 6.8 containing 10% glycerol, 2% SDS, 50 mM DTT, 200 mM 2-mercaptoethanol, and 0.001% bromophenol blue), and the mixture was boiled for 5 min. The samples were then resolved on a 4-12% Bis-Tris Criterion XT gel and transferred to a PVDF membrane. The membrane was dehydrated with methanol, and then probed with rabbit anti-FLAG antibody (Sigma; 1:1,000 dilution in blocking buffer (PBS 21 containing 3% non-fat dried milk and 0.01% Tween 20)) for 90 min. […] Blots were washed 4×3 min in PBS, and the immunoreactive bands were detected with a SuperSignal West Dura kit and a ChemiDoc XRS system. Protein bands were quantified using Quantity One software (Bio-Rad). For each experiment, boxes of equal size were drawn around the FLAG-Gli2 and FLAG-Gli2R bands. Band intensities were then normalized to the average intensity for all bands in a given experiment. The results from all experiments were averaged and normalized relative to the basal level of FLAG-Gli2 (DMSO treatment without Shh-N-conditioned medium).
# Hh pathway [3] = conditions: β-galactosidase reporter
# Experimental: Ptch1^−/− fibroblast assay for Hh pathway activation Hh pathway activation in Ptch1^−/− fibroblasts was assayed as previously described, using the knocked-in β-galactosidase gene as a reporter for Hh target gene expression. Ptch1^−/− fibroblasts were grown to 70-80% confluence in a 15-cm dish, trypsinized, and then resuspended in 40 mL of DMEM containing 10% FBS, 100 U/mL penicillin, and 0.1 mg/mL DMSO. This cell suspension was aliquoted into 96-well plates (150 μL/well), cultured overnight, and then treated with DMSO or various concentrations of the HPIs for 28 h. […] The cells were then lysed in Tropix lysis solution (30 μL/well; Applied Biosystems) and β-galactosidase levels were quantified by a Tropix Galacto-Star kit (Applied Biosystems) on a Veritas microplate luminometer.
# Hh pathway [4] = test system: Hh pathway
# Experimental: SmoM2-LIGHT assay for Hh pathway activation. SmoM2-LIGHT cells (previously named SmoA1-LIGHT cells) were grown to 70-80% confluence in a 15-cm dish, trypsinized, and then resuspended in 40 mL of DMEM containing 10% FBS, 100 U/mL penicillin, and 0.1 mg/mL DMSO. This cell suspension was aliquoted into 96-well plates (150 μL/well), cultured overnight, and then treated with DMSO or various concentrations of the HPIs for 28 h. Cells were then washed once with PBS then treated with 50 μL of passive lysis buffer (Promega). Hh pathway-dependent firefly luciferase activity in the lysates was quantified using Bright-Glo reagent and a Veritas microplate luminometer. Constitutive β-galactosidase activity was measured using the Tropix Galacto-Star kit.
# Sequence of Smo (P56726 33-793): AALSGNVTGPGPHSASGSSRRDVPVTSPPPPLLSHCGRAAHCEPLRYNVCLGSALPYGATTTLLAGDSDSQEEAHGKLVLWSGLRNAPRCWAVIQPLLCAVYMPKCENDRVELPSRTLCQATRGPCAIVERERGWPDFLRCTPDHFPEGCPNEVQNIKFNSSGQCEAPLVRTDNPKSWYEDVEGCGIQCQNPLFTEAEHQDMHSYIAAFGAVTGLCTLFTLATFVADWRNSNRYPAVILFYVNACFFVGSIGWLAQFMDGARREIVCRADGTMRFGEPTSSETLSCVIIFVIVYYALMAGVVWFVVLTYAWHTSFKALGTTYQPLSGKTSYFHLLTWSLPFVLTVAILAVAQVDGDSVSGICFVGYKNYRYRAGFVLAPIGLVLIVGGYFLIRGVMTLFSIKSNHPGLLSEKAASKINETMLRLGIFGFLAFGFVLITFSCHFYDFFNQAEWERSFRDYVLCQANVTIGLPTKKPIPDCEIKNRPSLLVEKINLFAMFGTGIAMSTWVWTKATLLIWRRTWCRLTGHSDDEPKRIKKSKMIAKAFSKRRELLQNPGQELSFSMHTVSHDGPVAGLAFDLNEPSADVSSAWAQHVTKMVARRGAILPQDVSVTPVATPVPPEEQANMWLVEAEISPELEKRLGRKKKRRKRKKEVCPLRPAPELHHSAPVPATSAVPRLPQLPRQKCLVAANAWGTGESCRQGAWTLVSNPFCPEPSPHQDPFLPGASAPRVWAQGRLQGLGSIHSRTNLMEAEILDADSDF
# Sequence of Smo (P56726 33-793): as above
compound,measurement,setting,value
N#CC(=C(/N)Sc1ccccc1N)/C(C#N)=C(\N)Sc1ccccc1N [Compound U0126],PDGF-induced phosphorylation of p44/p22 MAPK,MAPK,blocked p44/p22 MAPK phosphorylation
"CNC1CCC(N(Cc2cccc(-c3ccncc3)c2)C(=O)c2sc3ccccc3c2Cl)CC1 (centres unmarked) [SAG, reference compound]",Shh-induced fold change in Smo-CFP/Smo-YFP FRET,Smo,Shh-insensitive
"CC1=C2C[C@H]3[C@@H](CC=C4C[C@@H](O)CC[C@@]43C)[C@@H]2CC[C@]12O[C@@H]1C[C@H](C)CN[C@H]1[C@H]2C [cyclopamine, reference compound]",Inhibition of Hh pathway activation induced by 0.5 μM SAG,Hh pathway [1],resistant to inhibition
same,"Fluorescence intensity of Shh-treated Shh-EGFP cells (FACS, words)",Hh pathway [2],fluorescence intensities similar to those of untreated cells
same,Block of Shh-induced differentiation of C3H10T(1/2) cells into osteoblasts,C3H10T(1/2) cells,block the Shh-induced differentiation
same,FLAG-Gli2 levels and processing (immunoblotting),FLAG-Gli2,can suppress the effects of Shh
same,Inhibition of Hh pathway activity in Ptch1-/- fibroblasts,Hh pathway [3],inhibit Hh pathway activity
same,Inhibition of SmoM2-dependent Gli reporter expression in SmoM2-LIGHT cells,Hh pathway [4],significantly less potent
